Results taken from patent US6475996B1, “Use of a vector expressing DNA polymerase β as medicine” (Centre National De La Recherche Scientifique (CNRS), priority 1996, dated 2002).

Columns and labels:
[1] = target: DNA polymerase β (Homo sapiens, UniProt P06746); conditions: in vitro, compared with dCMP (Copeland et al., 1992); cited from earlier work
[2] = test system: E. coli SC 18-12; assay: Functionality check of pZHTkβ: survival of E. coli SC 18-12; format: cell-based; conditions: Zeocine 25 μg/ml
Description: The functionality of the construct was checked using E. coli bacterial strains,
1—either by transforming the strain SC 18-12 for the expression of pol β,

[3] = target: T1, pol β (Rattus norvegicus, UniProt P06766); assay: DNA replication test with extracts of pol β-transfected B16 cells; format: biochemical; conditions: extracts of B16 cells transfected with pUT-pol β
T1 construct: expressed in transfected cells; host or cells: B16 mouse melanoma cells transfected with pUT-pol β; cell extracts

Question: Which “Efficacy of incorporation by DNA polymerase β” value [1] does the source give for `Nc1ccn([C@H]2CC[C@@H](COP(=O)(O)O)O2)c(=O)n1` [ddCMP] here?
Answer: The value was “comparable to that observed for the incorporation of the natural antagonist dCMP”.

Question: Which “Survival (%)” value ([2]; SC 18-12/pZHTkβ) does the source give for `Cc1c(N)nc([C@H](CC(N)=O)NC[C@H](N)C(N)=O)nc1C(=O)N[C@H](C(=O)N[C@H](C)[C@@H](O)[C@H](C)C(=O)N[C@H](C(=O)NCCC1=N[C@@H](c2nc(C(=O)NCCCCN=C(N)N)cs2)CS1)[C@@H](C)O)[C@@H](O[C@@H]1O[C@@H](CO)[C@@H](O)[C@H](O)[C@@H]1O[C@H]1O[C@H](CO)[C@@H](O)[C@H](OC(N)=O)[C@@H]1O)c1cnc[nH]1` [Zeocine] here?
Answer: The value was 97%.

Question: What about the “Survival (%)” value ([2]; SC 18-12 non-transformed) of the same molecule?
Answer: Its value is 5%.

Question: For `Nc1ccn([C@H]2CC[C@@H](COP(=O)(O)OP(=O)(O)OP(=O)(O)O)O2)c(=O)n1` [triphosphorylated ddC], which “In vitro incorporation into the G-rich nucleotide substrate” value [3] is on record?
Answer: The value was “allowed an in vitro incorporation”.
